Laboratory results: publication PMC4436593, “Endoplasmic reticulum stress-independent activation of unfolded protein response kinases by a small molecule ATP-mimic” (eLife, 2015)
“Also recorded” adds a separate entry of the source.

Columns and labels:
[1] = tested on: PERK and eIF2α phosphorylation in HEK293T cells; assay: PERK mobility shift and eIF2α phosphorylation by immunoblotting in HEK293T cells; type: cell-based
Procedure: To evaluate effects of IPA on the PERK branch, we measured the phosphorylation state of PERK and eIF2α by Western blotting. […] We also monitored PERK activation by phosphorylation of eIF2α, detected with a phospho-eIF2α-specific antibody (Figure 3C).
Cells were lysed in 50 mM Tris-HCl, 2% SDS, 10% glycerol, 0.01% bromophenol blue, pH 6.8 supplemented with phosphatase inhibitors (Sigma) and protease inhibitors (Roche). 30 μg to 50 μg of total protein was loaded on each lane of 8% or 10% SDS-PAGE gels. The separated proteins were then transferred onto nitrocellulose membranes for immunoblotting. The following antibodies and dilutions were used: anti-β-actin 1:10,000 (A5441, Sigma), anti-total PERK at 1:1000 (C33E10, Cell Signaling Technology), anti-phospho eIF2α at 1:1000 (3597S, Cell Signaling Technology), anti-total eIF2α at 1:1000 (L57A5, Cell Signaling Technology). After overnight incubation with primary antibody, membranes were washed in PBS with 0.05% Tween and incubated in HRP-coupled secondary antibody anti-rabbit (611–1302, Rockland) or anti-mouse (610–1302, Rockland) diluted at 1:5000 in wash buffer. Immunoreactive bands were detected by chemiluminescence.

PERK = tested on: PERK; parameters: method as in Axten et al., 2012; Moreno et al., 2013; conditions: ref Axten et al., 2012; Moreno et al., 2013; read-out: EC50 of PERK inhibition in cells; cited from earlier work
[2] = tested on: protein translation in HEK293T cells; assay: Metabolic labeling: [35S] methionine incorporation in HEK293T cells; type: cell-based; conditions: IPA 1 μM + GSK 1 μM
Procedure: HEK293T cells (500,000 cells/ml) were plated in 12-well flat bottom culture cluster dishes (Costar, Fisher Scientific) 24 hr before the experiment. IPA (1 μM), or a combination of IPA with GSK2606414 (TRC inc. […] Cells lysates were kept on ice for 30 min before high-speed centrifugation followed by denaturation at 95°C. The samples were resolved on an SDS-polyacrylamide gel, which were then stained with Coomassie blue to ascertain protein loading. […] The resulting autoradiograms were quantified using ImageQuant software (Molecular Dynamics).

HEK293T cells = assay: HEK293T cell viability (CellTiter-Blue, 24 hr); type: cell-based; conditions: 24 hr, 1 μM, listed as GSK
Procedure: HEK293T cells were grown in DMEM (Sigma) complete media containing 10% FBS, 10 units/ml penicillin (Invitrogen), and 10 μg/ml streptomycin (Invitrogen). Cells were plated at a density of 30,000 cells per well in 96-well black plates with clear flat bottoms (Corning, Sigma-Aldrich) 24 hr before the experiment. A 12-point semi-logarithmic dilution series of compounds was made starting at 30 μM not to exceed 0.1% DMSO after final dilution into the growth media. Viability assays were conducted over the course of 24 hr. Cell viability was determined using CellTiter-Blue (Promega) following the manufacturer's instructions. […] Experiments were done in triplicate, and mean values were computed for each data point.

[3] = tested on: XBP1 mRNA-splicing reporter (IRE1-mediated) in HEK293T cells; assay: XBP1-luciferase splicing reporter in HEK293T cells; type: cell-based; conditions: Homo sapiens, HEK-293T, in the presence of Tm (2 μg/ml), read-out: IC50 of XBP1-luciferase-splicing reporter activation
Source text: A plasmid encoding a modified ER stress reporter construct consisting of a C-terminally FLAG-tagged firefly luciferase coding sequence fused to an N-terminal hemagglutinin-tagged tandem repeat of a partial sequence of XBP1 of human origin lacking its DNA-binding domain and containing the IRE1-cognate intron (pCAX-HA-2xXBP1ΔDBD(anATG)-LUC-F, kind gift of Takao Iwawaki [[Hosoda et al., 2010]]), was used as a template to generate a retroviral expression construct. The coding sequence of the reporter was amplified by PCR using primers with engineered BamHI and EcoRI sites and was subsequently cloned into the cognate sites of the retroviral expression vector pBABE.puro (Addgene) to generate construct DAA-A171. DAA-A171 was used to generate recombinant retroviral particles using standard methods and the resulting retroviral supernatant was used to transduce HEK293T cells, which were then subsequently selected with puromycin to create a stable reporter cell line.

[4] = tested on: XBP1 mRNA splicing in HEK293T cells; assay: XBP1 mRNA splicing by RT-PCR in HEK293T cells; type: cell-based, human; conditions: [AD60] = 1 μM, 4 hr
Procedure: To examine the effects of IPA in living cells, we monitored the UPR in HEK293T cells using RT-PCR to measure splicing of XBP1 mRNA. […] At a concentration of 2 μM IPA, splicing was induced within 2 hr (lane 5). […] We used tunicamycin (Tm), which induces ER stress by blocking N-linked glycosylation, as a positive control to induce the UPR (Figure 2A, lanes 7, and Figure 2B, lane 4).
Cells were lysed and total RNA was collected (Total RNA Kit 1, EZ-RNA, EZNA [USA]). PolyA^+ mRNA was reverse transcribed with M-MLV (Invitrogen), and the resulting cDNA was used as a template for PCR amplification across the fragment of XBP1 cDNA containing the intron. Primers used to amplify human XBP1: 5′-[…]-3′ and 5′-[…]-3′. To amplify murine XBP1: 5′-[…]-3′ and 5′-[…]-3′. PCR conditions were as follows: 95°C for 5 min, 95°C for 1 min, 58°C for 30 s, 72°C for 30 s, and 72°C for 5 min, with 20 cycles of amplification. PCR products were resolved on a 2.5% agarose tris-acetate EDTA (TAE) gel. As previously reported, a hybrid amplicon species consisting of unspliced Xbp-1 annealed to spliced Xbp-1 can also be produced through this PCR reaction and was visible as a slower migrating band above the unspliced amplicon. The same cDNA was used as template for PCR of DERLIN-3 and HERPUD1, both ATF6 targets, and GAPDH, which was used as loading control. Primers used included the following: DERLIN-3, 5′-[…]-3′ and 5′-[…]-3′; HERPUD1-1, 5′-[…]-3′ and 5′-[…]-3′; GAPDH, 5′-[…]-3′ and 5′-[…]-3′. PCR conditions were: 95°C × 5 min, 95°C × 1 min, 56°C × 30 s, 72°C for 30 s for 25 cycles, 72°C for 5 min at 4°C. PCR products were resolved on a 2% agarose TAE gel.

Structure (SMILES) | effect of compound alone on the PERK pathway ([1]; GSK 1 μM alone) | effect on IPA-induced PERK and eIF2α phosphorylation ([1]; GSK 1 μM, IPA 0.5 and 1 μM) | EC50 (PERK) | effect on translation in IPA-treated cells [2] | effect on HEK293T cell viability at 1 μM (HEK293T cells) | IC50 [3] | effect on Tm-induced XBP1 mRNA splicing ([4]; Tm) | effect on IPA-induced XBP1 mRNA splicing ([4]; up to highest IPA concentration tested)
Cn1cc(-c2ccc3c(c2)CCN3C(=O)Cc2cccc(C(F)(F)F)c2)c2c(N)ncnc21 [GSK2606414, 7-methyl-5-(1-{[3-(trifluoromethyl)phenyl]acetyl}-2,3-dihydro-1H-indol-5-yl)-7H-p yrrolo[2,3-d]pyrimidin-4-amine, reference compound] | No effect on the pathway was observed | abolished IPA-induced PERK and eIF2α phosphorylation | […] | restored translation to baseline levels | No effect on viability was observed; also recorded: no cell toxicity | – | – | –
Nc1ncnc2c1c(-c1ccc(NC(=O)Nc3cccc(C(F)(F)F)c3)cc1)nn2C1CCCC1 [AD60, reference compound] | – | – | – | – | – | 0.75 µM | inhibited Tm-induced XBP1 mRNA splicing | fully ablated IPA-induced XBP1 mRNA splicing
